The target in this test is T1, F508delCFTR (Homo sapiens, UniProt P13569, DEL508-508).
T1 construct: expressed in transfected cells; host or cells: CFBE41o- human lung-derived epithelial cells (CFBE4lo-F508delCFTR-HRP), doxycycline-inducible
The experiment in a line: Cell Surface Expression-Horse Radish Peroxidase (CSE-HRP) Assay.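 As to Maximum % activity (with co-corrector): co-corrector and positive control are both the same reference corrector at 2 µM.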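 As to Maximum % activity (without co-corrector): percent of the 2 µM on-plate positive control corrector response above DMSO.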 The following applies: for Maximum % activity (with co-corrector) / Emax: maximum at any tested concentration, normalized to on-plate positive control; for Emax: read-out: Maximum % activity (without co-corrector). It counts as cell-based.

[1] abbreviates: CSE-HRP, test compound without co-corrector, read-out: EC50 (without co-corrector).
The mark [2] stands for this setting: CSE-HRP, with co-corrector (2 μM of 3-[(2R,4R)-4-({[1-(2,2-difluoro-1,3-benzodioxol-5-yl)cyclopropyl]carbonyl}amino)-7-methoxy-3,4-dihydro-2H-chromen-2-yl]benzoic acid), read-out: EC50 (with co-corrector).
The mark [3] stands for this setting: CSE-HRP, with co-corrector (2 μM).
Setting [4] is: test compound without co-corrector.
[5] abbreviates: test compound without co-corrector, read-out: EC50 (without co-corrector).
Where [6] appears, read: with co-corrector (2 μM of 3-[(2R,4R)-4-({[1-(2,2-difluoro-1,3-benzodioxol-5-yl)cyclopropyl]carbonyl}amino)-7-methoxy-3,4-dihydro-2H-chromen-2-yl]benzoic acid).
[7] abbreviates: with co-corrector (2 μM of 3-[(2R,4R)-4-({[1-(2,2-difluoro-1,3-benzodioxol-5-yl)cyclopropyl]carbonyl}amino)-7-methoxy-3,4-dihydro-2H-chromen-2-yl]benzoic acid), read-out: EC50 (with co-corrector).

Structures are written as SMILES. Like-named read-outs stand apart in the source and are kept apart here.

T1 sequence (P13569 with tags, fused parts or gaps DEL508-508): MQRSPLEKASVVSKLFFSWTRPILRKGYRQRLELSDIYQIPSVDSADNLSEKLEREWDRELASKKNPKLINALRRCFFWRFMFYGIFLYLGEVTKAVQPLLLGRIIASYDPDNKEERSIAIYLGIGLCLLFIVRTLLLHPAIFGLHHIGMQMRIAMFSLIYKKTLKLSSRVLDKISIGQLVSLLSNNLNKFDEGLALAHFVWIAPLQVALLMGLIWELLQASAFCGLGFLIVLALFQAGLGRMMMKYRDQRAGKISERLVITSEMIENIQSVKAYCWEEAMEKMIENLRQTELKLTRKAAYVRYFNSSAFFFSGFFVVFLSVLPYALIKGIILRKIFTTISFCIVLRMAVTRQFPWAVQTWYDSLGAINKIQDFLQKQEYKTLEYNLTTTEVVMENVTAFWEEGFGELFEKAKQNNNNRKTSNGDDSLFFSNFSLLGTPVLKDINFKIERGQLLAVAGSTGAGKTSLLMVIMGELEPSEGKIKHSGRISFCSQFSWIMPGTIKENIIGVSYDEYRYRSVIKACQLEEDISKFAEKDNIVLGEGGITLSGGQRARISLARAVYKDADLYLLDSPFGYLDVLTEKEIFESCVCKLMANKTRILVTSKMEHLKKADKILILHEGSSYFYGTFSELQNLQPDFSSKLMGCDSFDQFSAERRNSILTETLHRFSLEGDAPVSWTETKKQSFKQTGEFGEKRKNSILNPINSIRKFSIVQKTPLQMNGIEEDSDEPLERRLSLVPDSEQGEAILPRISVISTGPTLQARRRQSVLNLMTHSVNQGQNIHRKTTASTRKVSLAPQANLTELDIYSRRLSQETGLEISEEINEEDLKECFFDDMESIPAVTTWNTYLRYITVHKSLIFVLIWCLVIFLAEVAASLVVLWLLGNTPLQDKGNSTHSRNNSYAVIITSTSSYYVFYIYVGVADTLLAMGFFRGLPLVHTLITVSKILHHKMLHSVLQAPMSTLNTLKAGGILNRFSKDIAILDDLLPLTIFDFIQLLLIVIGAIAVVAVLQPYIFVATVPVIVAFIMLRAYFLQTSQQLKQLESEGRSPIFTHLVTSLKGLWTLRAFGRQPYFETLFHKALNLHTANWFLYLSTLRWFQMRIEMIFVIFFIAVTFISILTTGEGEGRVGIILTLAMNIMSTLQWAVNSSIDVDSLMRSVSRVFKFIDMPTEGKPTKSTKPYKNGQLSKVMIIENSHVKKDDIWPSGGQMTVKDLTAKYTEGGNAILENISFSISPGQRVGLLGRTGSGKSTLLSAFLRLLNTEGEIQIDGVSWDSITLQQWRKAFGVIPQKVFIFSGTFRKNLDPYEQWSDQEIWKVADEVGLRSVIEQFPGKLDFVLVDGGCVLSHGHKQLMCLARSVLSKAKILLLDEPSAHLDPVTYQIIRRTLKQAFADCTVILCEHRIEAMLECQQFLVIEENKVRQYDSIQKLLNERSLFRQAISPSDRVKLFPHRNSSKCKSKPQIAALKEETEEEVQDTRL

For orientation: EC50 means the concentration at which the effect is half-maximal. Consider `CC(C)c1ccccc1[C@H]1[C@@H](NCc2cccc3c2OC(C)(C)C3)[C@H](C(C)(C)C)[C@@H](C(=O)O)N1C(=O)[C@@H]1CCCO1` [Example I-305], for which the EC50 under setting [1] is 1 to 10 µM and the concentration for a half-maximal effect (EC50) under setting [2] lay in the range of 1 to 10 µM. Further, under setting [3], the “Maximum % activity (with co-corrector)” value was “+++ (≥350)”. Under “CSE-HRP, without co-corrector”, the Emax lay in the range of 100 to 200%.
With `COc1ncc(C(F)(F)F)cc1N[C@H]1[C@H](C(C)(C)C)[C@@H](C(=O)O)N(C(=O)C2CCCCC2)[C@H]1c1cccnc1N(C)C` [II-461], the Emax under setting [4] is below 100%. The EC50 lay in the range of 1 to 10 µM under setting [5] and 1 to 10 µM under setting [7]. Moreover, under setting [6], the “Maximum % activity (with co-corrector)” value was “++ (≥150 and <350)”.
Take `COc1ccc(C(C)(C)C)cc1CN[C@H]1[C@H](C(C)(C)C)[C@@H](C(=O)O)N(C(=O)c2cnn(-c3ccccc3)c2C)[C@H]1c1ccccc1` [II-361]: under setting [4], the Emax is above 200%. In addition, the 50% effective concentration (EC50) is, setting by setting: under setting [5], 1 to 10 µM; under setting [7], below 1 µM. Besides, under setting [6], the “Maximum % activity (with co-corrector)” value is recorded as “+++ (≥350)”.
For the compound `COc1ncc(C(F)(F)F)cc1N[C@H]1[C@H](C(C)(C)C)[C@@H](C(=O)O)N(C(=O)C2C3CCCC32)[C@H]1c1cccnc1N(C)C` (some centres unmarked) [II-483], the Emax under setting [4] was below 100%. For the same compound, the half-maximal effective concentration (EC50) by setting is: under setting [5], 1 to 10 µM; under setting [7], 1 to 10 µM. In addition, under setting [6], the “Maximum % activity (with co-corrector)” value is “++ (≥150 and <350)”.
As for `COc1ccc(C(C)(C)C)cc1CN[C@H]1[C@H](C(C)(C)C)[C@@H](C(=O)O)N(C(=O)C2CCCCN2S(C)(=O)=O)[C@H]1c1ccccc1` (some centres unmarked) [Example I-138], the concentration giving a half-maximal response (EC50) reads like this: under setting [5], 1 to 10 µM; under setting [7], 1 to 10 µM. Besides, where the note is “with co-corrector (2 μM)”, the “Maximum % activity (with co-corrector)” value was “+++ (≥350)”. For the same compound, the Emax (without co-corrector) was above 200%.
As for `COc1ccc(-c2ccoc2)cc1CN[C@H]1[C@H](C(C)(C)C)[C@@H](C(=O)O)N(C(=O)C2CCCCC2)[C@H]1c1ccccc1` [II-276], the EC50 reads like this: under setting [1], 1 to 10 µM; under setting [2], below 1 µM. Further, the “Maximum % activity (with co-corrector)” value under setting [3] is “+++ (≥350)”. Further, the Emax (CSE-HRP, without co-corrector) was above 200%.
As to `CC(C)(C)[C@H]1[C@H](NCc2ccc(OC(F)(F)F)c(F)c2)[C@H](c2ccccc2)N(C(=O)C2CCCCC2)[C@@H]1C(=O)O` [III-128], the Emax under setting [4] was below 100%. Also, the concentration for a half-maximal effect (EC50) is, setting by setting: under setting [5], above 10 µM; under setting [7], 1 to 10 µM. The “Maximum % activity (with co-corrector)” value (with co-corrector (2 μM)) is “++ (≥150 and <350)”.
In the case of `COc1ncc(-c2ccccc2C)cc1CN[C@H]1[C@H](C(C)(C)C)[C@@H](C(=O)O)N(C(=O)C2CCCCC2)[C@H]1c1ccccc1` [II-342], under setting [4], the Emax is above 200%. The 50% effective concentration (EC50) runs as follows: under setting [5], below 1 µM; under setting [7], below 1 µM. Besides, the “Maximum % activity (with co-corrector)” value under setting [6] is reported as “+++ (≥350)”.
On to `CCN(C)S(=O)(=O)NC(=O)[C@H]1[C@H](C(C)(C)C)[C@@H](Nc2cc(C(F)(F)F)cc(C)n2)[C@@H](c2ccccc2)N1C(=O)C1CCCCC1` (racemic) [III-55], for which the Emax under setting [4] was below 100%. Besides, the EC50 is above 10 µM under setting [5] and 1 to 10 µM under setting [7]. In addition, the “Maximum % activity (with co-corrector)” value under setting [6] was “++ (≥150 and <350)”.
For `COc1ccc(C(F)(F)F)cc1CN[C@H]1[C@H](C(C)(C)C)[C@@H](C(=O)O)N(C(=O)C2CCC(C)(C)C2)[C@H]1c1ccccc1` (some centres unmarked) [III-197], under setting [4], the Emax is 100 to 200%. Further, the half-maximal effective concentration (EC50) under setting [5] was below 1 µM and the EC50 under setting [7] was below 1 µM. In addition, the “Maximum % activity (with co-corrector)” value (with co-corrector (2 μM)) is on record as “+++ (≥350)”.
For `COc1ncc(C(F)(F)F)cc1CN[C@H]1[C@H](C(C)(C)C)[C@@H](C(=O)O)N(C(=O)C2CCCCC2)[C@H]1c1ccccc1C(C)C` [II-545], under setting [4], the Emax is above 200%. Besides, the EC50 under setting [5] lay in the range of 1 to 10 µM and the EC50 under setting [7] lay in the range of 1 to 10 µM. The “Maximum % activity (with co-corrector)” value under setting [6] is listed as “+++ (≥350)”.
As for `C/C=C/CC(C/C=C/C)C(=O)N1[C@H](C(=O)O)[C@@H](C(C)(C)C)[C@H](NCc2cc(C(C)(C)C)ccc2OC)[C@@H]1c1ccccc1` [II-439], the Emax under setting [4] is above 200%. Moreover, the EC50 was 1 to 10 µM under setting [5] and below 1 µM under setting [7]. In addition, under setting [6], the “Maximum % activity (with co-corrector)” value is “+++ (≥350)”.
`CCCCCOC(=O)N1[C@H](C(=O)O)[C@@H](C(C)(C)C)[C@H](NCc2cc(C(C)(C)C)ccc2OC)[C@@H]1c1ccccc1` [II-385]: the Emax under setting [4] is above 200%. Besides, the concentration for a half-maximal effect (EC50) by setting is: under setting [5], below 1 µM; under setting [7], below 1 µM. Besides, the “Maximum % activity (with co-corrector)” value under setting [6] is recorded as “+++ (≥350)”.
In the case of `COc1ccc(C2(C)CCC2)cc1CN[C@H]1[C@H](C(C)(C)C)[C@@H](C(=O)O)N(C(=O)[C@@H]2CCCO2)[C@H]1c1ccccc1C` [II-578], the Emax under setting [4] was above 200%. In addition, the EC50 is 1 to 10 µM under setting [5] and below 1 µM under setting [7]. The “Maximum % activity (with co-corrector)” value under setting [6] is listed as “+++ (≥350)”.
In the case of `COc1cc(OC)c(CN[C@@H]2[C@@H](C(C)(C)C)[C@H](C(=O)O)N(C(=O)C3CCCCC3)[C@@H]2c2ccccc2)cc1Cl` (racemic) [III-20], under setting [4], the Emax is below 100%. Also, the 50% effective concentration (EC50) is, setting by setting: under setting [5], 1 to 10 µM; under setting [7], 1 to 10 µM. Also, under setting [6], the “Maximum % activity (with co-corrector)” value is “++ (≥150 and <350)”.
With `COc1ncc(C2CC2)cc1CN[C@H]1[C@H](C(C)(C)C)[C@@H](C(=O)O)N(C(=O)[C@@H]2CCCO2)[C@H]1c1ccccc1C(C)C` [Example 101, (2S,3S,4S,5S)-3-tert-butyl-4-{[(5-cyclopropyl-2-methoxypyridin-3-yl)methyl]amino}-1-[(2S)-oxolane-2-carbonyl]-5-[2-(propan-2-yl)phenyl]pyrrolidine-2-carboxylic acid], the EC50 is 1 to 10 µM under setting [5] and below 1 µM under setting [7]. Further, where the note is “with co-corrector (2 μM)”, the “Maximum % activity (with co-corrector)” value is given as “+++ (≥350)”. Moreover, the Emax (without co-corrector) was above 200%.
Regarding `COc1ccc(CN[C@H]2[C@H](C(C)(C)C)[C@@H](C(=O)O)N(C(=O)C3CCCCC3)[C@H]2c2ccccc2)cc1Cl` [III-126], the Emax under setting [4] was below 100%. Besides, the EC50 was 1 to 10 µM under setting [5] and 1 to 10 µM under setting [7]. In addition, the “Maximum % activity (with co-corrector)” value (with co-corrector (2 μM)) is “++ (≥150 and <350)”.
As for `COc1ccc(C(C)(C)C)cc1CN[C@H]1[C@H](C(C)(C)C)[C@@H](C(=O)O)N(C(=O)C2CCCCO2)[C@H]1c1ccccc1` (relative stereo) [Example I-193], the EC50 by setting is: under setting [5], 1 to 10 µM; under setting [7], 1 to 10 µM. Also, the “Maximum % activity (with co-corrector)” value (with co-corrector (2 μM)) is reported as “+++ (≥350)”. Further, the Emax (without co-corrector) is above 200%.
On to `COC(=O)N1[C@H](C(=O)O)[C@@H](C(C)(C)C)[C@H](NCc2cc(C(C)(C)C)ccc2OC)[C@@H]1c1ccccc1` [II-388], for which the Emax under setting [4] is above 200%. Moreover, the half-maximal effective concentration (EC50) reads like this: under setting [5], 1 to 10 µM; under setting [7], 1 to 10 µM. Moreover, under setting [6], the “Maximum % activity (with co-corrector)” value was “+++ (≥350)”.
For `COCCn1cc(C(F)(F)F)cc(CN[C@H]2[C@H](C(C)(C)C)[C@@H](C(=O)O)N(C(=O)C3CCCCC3)[C@H]2c2ccccc2)c1=O` (racemic) [III-65], under setting [4], the Emax was below 100%. Moreover, the EC50 under setting [5] was above 10 µM and the concentration for a half-maximal effect (EC50) under setting [7] lay within 1 to 10 µM. The “Maximum % activity (with co-corrector)” value under setting [6] is “++ (≥150 and <350)”.
Regarding `CC(C)(C)[C@@H]1[C@@H](Nc2ccc(C(F)(F)F)cn2)[C@@H](c2ccccc2)N(C(=O)C2CCCCC2)[C@H]1C(=O)O` (racemic) [III-5], under setting [4], the Emax is below 100%. In addition, the EC50 fell in the range of 1 to 10 µM under setting [5] and 1 to 10 µM under setting [7]. Further, the “Maximum % activity (with co-corrector)” value under setting [6] was “++ (≥150 and <350)”.
On to `CC(C)(C)[C@H]1[C@H](Nc2cc3ccccc3cn2)[C@H](c2ccccc2)N(C(=O)C2CCCCC2)[C@@H]1C(=O)O` [III-156], for which the Emax under setting [4] is below 100%. In addition, the 50% effective concentration (EC50) was below 1 µM under setting [5] and 1 to 10 µM under setting [7]. Besides, where the note is “with co-corrector (2 μM)”, the “Maximum % activity (with co-corrector)” value was “++ (≥150 and <350)”.
With `CCCOC(=O)N1[C@H](C(=O)O)[C@@H](C(C)(C)C)[C@H](NCc2cc(C(C)(C)C)ccc2OC)[C@@H]1c1ccccc1` [II-390], the Emax under setting [4] was above 200%. Further, the half-maximal effective concentration (EC50) is, setting by setting: under setting [5], 1 to 10 µM; under setting [7], 1 to 10 µM. For the same compound, under setting [6], the “Maximum % activity (with co-corrector)” value is “+++ (≥350)”.
Consider `COc1cc(C(F)(F)F)ccc1CN[C@@H]1[C@@H](C(C)(C)C)[C@H](C(=O)O)N(C(=O)C2CCCOC2)[C@@H]1c1ccccc1N(C)C` (mixture of isomers) [II-22], for which the 50% effective concentration (EC50) lay in the range of 1 to 10 µM under setting [1] and 1 to 10 µM under setting [2]. The “Maximum % activity (with co-corrector)” value under setting [3] was “+++ (≥350)”. Under “CSE-HRP, without co-corrector”, the Emax was 100 to 200%.
In the case of `COc1cccc([C@H]2[C@@H](NCc3cc(C(F)(F)F)ccc3OC)[C@H](C(C)(C)C)[C@@H](C(=O)O)N2C(=O)C2CCCOC2)n1` (mixture of isomers) [III-69], under setting [4], the Emax was below 100%. For the same compound, the 50% effective concentration (EC50) is, setting by setting: under setting [5], 1 to 10 µM; under setting [7], 1 to 10 µM. Besides, under setting [6], the “Maximum % activity (with co-corrector)” value was “+++ (≥350)”.
On to `CCOc1ccc(Cl)cc1CN[C@@H]1[C@@H](C(C)(C)C)[C@H](C(=O)O)N(C(=O)C2CCCCC2)[C@@H]1c1ccccc1` (racemic) [II-9], for which the EC50 is 1 to 10 µM under setting [1] and 1 to 10 µM under setting [2]. Besides, under setting [3], the “Maximum % activity (with co-corrector)” value was “+++ (≥350)”. Also, for the setting “CSE-HRP, without co-corrector”, the Emax is below 100%.
